According to ChEMBL document CHEMBL5579877, “Design and Evaluation of 3-Phenyloxetane Derivative Agonists of the Glucagon-Like Peptide-1 Receptor” (J Med Chem, 2024):

Legend:
[1] = Metabolic stability in human liver microsomes assessed as half life at […] incubated upto 45 mins in presence of NADPH by LC-MS/MS analysis; type: ADME, Microsome
[2] = Permeability across apical to basolateral in human Caco-2 cells at 10 uM incubated for 120 mins by LC-MS/MS analysis; type: ADME, cell-based; conditions: read-out: permeability
[3] = Permeability across basolateral to apical side in human Caco-2 cells at 10 uM incubated for 120 mins by LC-MS/MS analysis; type: ADME, cell-based; conditions: read-out: permeability
[4] = Cmax in cynomolgus monkey at 2 mg/kg, iv; type: ADME, organism-based, Macaca fascicularis; conditions: in vivo
[5] = Tmax in cynomolgus monkey at 2 mg/kg, iv; type: ADME, organism-based, Macaca fascicularis; conditions: in vivo
[6] = Oral bioavailability in cynomolgus monkey at 20 mg/kg; type: ADME, organism-based, Macaca fascicularis; conditions: in vivo
[7] = target: T1, Cytochrome P450 1A2 (Homo sapiens, UniProt P05177); test: Inhibition of CYP1A2 in human liver microsomes using phenacetin as substrate preincubated for 5 mins followed by NADPH addition and measured after 10 mins by LC-MS/MS analysis; type: ADME, Microsome
T1 sequence (P05177 whole entry): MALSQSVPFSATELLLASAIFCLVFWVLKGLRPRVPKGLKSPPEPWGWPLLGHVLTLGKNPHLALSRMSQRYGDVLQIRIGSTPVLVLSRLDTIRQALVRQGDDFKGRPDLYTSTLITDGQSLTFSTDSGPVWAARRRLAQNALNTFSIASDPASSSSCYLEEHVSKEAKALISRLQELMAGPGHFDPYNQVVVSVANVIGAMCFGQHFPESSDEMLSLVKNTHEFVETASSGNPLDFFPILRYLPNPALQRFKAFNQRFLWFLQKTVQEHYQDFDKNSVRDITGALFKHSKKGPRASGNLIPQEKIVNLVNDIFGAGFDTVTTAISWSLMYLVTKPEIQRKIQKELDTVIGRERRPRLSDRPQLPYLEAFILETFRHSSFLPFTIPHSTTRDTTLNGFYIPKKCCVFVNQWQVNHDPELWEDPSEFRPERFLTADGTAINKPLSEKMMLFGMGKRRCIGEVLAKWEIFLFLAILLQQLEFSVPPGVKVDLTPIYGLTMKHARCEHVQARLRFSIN

[8] = target: T2, Cytochrome P450 2B6 (Homo sapiens, UniProt P20813); test: Inhibition of CYP2B6 in human liver microsomes using bupropion as substrate preincubated for 5 mins followed by NADPH addition and measured after 10 mins by LC-MS/MS analysis; type: ADME, Microsome
T2 sequence (P20813 whole entry): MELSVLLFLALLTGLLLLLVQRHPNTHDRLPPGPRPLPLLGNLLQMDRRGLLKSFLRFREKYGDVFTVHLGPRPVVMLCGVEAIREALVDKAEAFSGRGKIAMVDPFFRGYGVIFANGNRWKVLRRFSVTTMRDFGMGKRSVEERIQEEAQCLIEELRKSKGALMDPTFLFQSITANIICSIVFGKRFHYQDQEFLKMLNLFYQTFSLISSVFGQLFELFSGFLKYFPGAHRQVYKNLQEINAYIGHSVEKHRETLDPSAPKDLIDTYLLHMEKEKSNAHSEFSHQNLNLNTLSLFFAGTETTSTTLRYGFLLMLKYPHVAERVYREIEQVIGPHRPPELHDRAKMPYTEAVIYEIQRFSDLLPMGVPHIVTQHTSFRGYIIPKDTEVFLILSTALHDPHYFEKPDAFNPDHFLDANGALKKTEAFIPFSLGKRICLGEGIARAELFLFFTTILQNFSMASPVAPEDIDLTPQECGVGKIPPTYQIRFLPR

[9] = target: T3, Cytochrome P450 2C8 (Homo sapiens, UniProt P10632); test: Inhibition of CYP2C8 in human liver microsomes using paclitaxel as substrate preincubated for 5 mins followed by NADPH addition and measured after 20 mins by LC-MS/MS analysis; type: ADME, Microsome
T3 sequence (P10632 whole entry): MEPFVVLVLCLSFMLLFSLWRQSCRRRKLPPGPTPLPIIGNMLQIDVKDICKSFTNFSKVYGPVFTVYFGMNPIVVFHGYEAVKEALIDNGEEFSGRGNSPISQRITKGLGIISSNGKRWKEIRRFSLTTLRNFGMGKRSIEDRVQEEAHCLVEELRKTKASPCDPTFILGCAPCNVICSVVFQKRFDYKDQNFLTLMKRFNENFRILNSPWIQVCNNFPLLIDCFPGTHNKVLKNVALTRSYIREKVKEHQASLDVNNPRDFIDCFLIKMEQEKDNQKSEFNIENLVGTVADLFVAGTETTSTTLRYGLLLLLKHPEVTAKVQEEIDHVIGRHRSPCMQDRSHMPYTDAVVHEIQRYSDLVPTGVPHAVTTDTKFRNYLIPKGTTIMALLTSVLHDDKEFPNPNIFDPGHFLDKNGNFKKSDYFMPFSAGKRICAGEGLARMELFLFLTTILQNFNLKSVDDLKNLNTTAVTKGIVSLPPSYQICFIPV

[10] = target: Cytochrome P450 2C9 (Homo sapiens, UniProt P11712); test: Inhibition of CYP2C9 in human liver microsomes using diclofenac as substrate preincubated for 5 mins followed by NADPH addition and measured after 10 mins by LC-MS/MS analysis; type: ADME, Microsome
[11] = target: Cytochrome P450 2C19 (Homo sapiens, UniProt P33261); test: Inhibition of CYP2C19 in human liver microsomes using S-mephenytoin as substrate preincubated for 5 mins followed by NADPH addition and measured after 45 mins by LC-MS/MS analysis; type: ADME, Microsome
[12] = target: Cytochrome P450 2D6 (Homo sapiens, UniProt P10635); test: Inhibition of CYP2D6 in human liver microsomes using dextromethorphan as substrate preincubated for 5 mins followed by NADPH addition and measured after 20 mins by LC-MS/MS analysis; type: ADME, Microsome
[13] = AUC in ICR mouse at 2 mg/kg, iv by LC-MS/MS analysis; type: ADME, organism-based; conditions: in vivo
[14] = Oral clearance in ICR mouse at 5 mg/kg, po by LC-MS/MS analysis; type: ADME, organism-based; conditions: in vivo
[15] = Half-life in ICR mouse at 2 mg/kg, iv by LC-MS/MS analysis; type: ADME, organism-based; conditions: in vivo
[16] = Half-life in ICR mouse at 5 mg/kg, po by LC-MS/MS analysis; type: ADME, organism-based; conditions: in vivo
[17] = Oral bioavailability in ICR mouse at 5 mg/kg by LC-MS/MS analysis; type: ADME, organism-based; conditions: in vivo
[18] = Cmax in rat at 5 mg/kg, po by LC-MS/MS analysis; type: ADME, organism-based; conditions: in vivo
[19] = AUC in rat at 2 mg/kg, iv by LC-MS/MS analysis; type: ADME, organism-based; conditions: in vivo
[20] = AUC in rat at 5 mg/kg, po by LC-MS/MS analysis; type: ADME, organism-based; conditions: in vivo
[21] = Oral clearance in rat at 5 mg/kg, po by LC-MS/MS analysis; type: ADME, organism-based; conditions: in vivo
[22] = Half-life in rat at 2 mg/kg, iv by LC-MS/MS analysis; type: ADME, organism-based; conditions: in vivo
[23] = Half-life in rat at 5 mg/kg, po by LC-MS/MS analysis; type: ADME, organism-based; conditions: in vivo
[24] = Apparent volume of distribution in rat at 2 mg/kg, iv by LC-MS/MS analysis; type: ADME, organism-based; conditions: in vivo, read-out: Vz
[25] = Oral bioavailability in rat at 5 mg/kg by LC-MS/MS analysis; type: ADME, organism-based; conditions: in vivo

Cytochrome P450 2D6, sequence (P10635 whole entry): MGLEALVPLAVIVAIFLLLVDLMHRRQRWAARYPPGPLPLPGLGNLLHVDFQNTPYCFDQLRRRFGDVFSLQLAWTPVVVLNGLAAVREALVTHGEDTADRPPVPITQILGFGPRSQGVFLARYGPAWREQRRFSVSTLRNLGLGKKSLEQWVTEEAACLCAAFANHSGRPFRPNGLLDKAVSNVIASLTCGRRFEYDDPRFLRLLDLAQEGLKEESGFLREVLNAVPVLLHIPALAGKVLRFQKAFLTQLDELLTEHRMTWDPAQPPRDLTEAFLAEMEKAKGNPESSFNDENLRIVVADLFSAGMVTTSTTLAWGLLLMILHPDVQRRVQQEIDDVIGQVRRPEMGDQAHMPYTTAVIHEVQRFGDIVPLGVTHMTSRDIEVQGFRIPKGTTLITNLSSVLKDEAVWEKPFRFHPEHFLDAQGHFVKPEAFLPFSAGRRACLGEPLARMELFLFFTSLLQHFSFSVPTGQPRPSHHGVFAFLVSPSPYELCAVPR
Cytochrome P450 2C9, sequence (P11712 whole entry): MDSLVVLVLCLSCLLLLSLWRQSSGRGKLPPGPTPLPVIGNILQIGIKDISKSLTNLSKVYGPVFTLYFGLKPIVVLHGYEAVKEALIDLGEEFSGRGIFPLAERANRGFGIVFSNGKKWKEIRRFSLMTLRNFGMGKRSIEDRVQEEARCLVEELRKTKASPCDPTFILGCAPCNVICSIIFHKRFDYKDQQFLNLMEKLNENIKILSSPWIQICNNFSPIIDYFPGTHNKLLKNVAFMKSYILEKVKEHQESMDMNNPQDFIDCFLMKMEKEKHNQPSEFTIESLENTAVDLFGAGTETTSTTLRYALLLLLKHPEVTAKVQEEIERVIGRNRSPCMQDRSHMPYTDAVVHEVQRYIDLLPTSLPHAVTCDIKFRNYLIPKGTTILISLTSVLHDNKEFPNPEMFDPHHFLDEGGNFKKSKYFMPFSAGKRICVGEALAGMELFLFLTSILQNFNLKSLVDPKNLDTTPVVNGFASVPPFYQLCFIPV
Cytochrome P450 2C19, sequence (P33261 whole entry): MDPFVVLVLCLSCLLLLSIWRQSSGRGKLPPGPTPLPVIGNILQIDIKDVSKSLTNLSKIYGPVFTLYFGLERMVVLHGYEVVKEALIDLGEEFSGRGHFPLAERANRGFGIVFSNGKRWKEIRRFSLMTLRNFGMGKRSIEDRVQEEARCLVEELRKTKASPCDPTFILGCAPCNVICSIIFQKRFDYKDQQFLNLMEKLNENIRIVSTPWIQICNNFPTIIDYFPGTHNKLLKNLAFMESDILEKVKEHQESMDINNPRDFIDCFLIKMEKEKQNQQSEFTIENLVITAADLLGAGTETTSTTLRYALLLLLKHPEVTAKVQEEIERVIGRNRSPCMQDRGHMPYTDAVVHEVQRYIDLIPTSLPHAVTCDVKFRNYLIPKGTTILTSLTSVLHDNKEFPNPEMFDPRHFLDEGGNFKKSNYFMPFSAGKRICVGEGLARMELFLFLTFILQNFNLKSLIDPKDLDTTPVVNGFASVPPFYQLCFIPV

Structure (SMILES)	half-life [1]	Papp A→B at 2 h, 10 µM [2]	Papp B→A at 2 h, 10 µM [3]	Cmax [4]	Tmax [5]	bioavailability [6]	IC50 [7]	IC50 [8]	IC50 [9]	IC50 [10]	IC50 [11]	IC50 [12]	AUC [13]	CL/F [14]	half-life [15]	half-life [16]	bioavailability [17]	Cmax [18]	AUC [19]	AUC [20]	further results
O=C(O)c1ccc2nc(CN3CCC(c4cccc(OCc5ccc(C6COC6)cc5F)n4)CC3)n(C[C@@H]3CCO3)c2c1	2.17 h	3.14 ×10⁻⁶ cm/s	16.5 ×10⁻⁶ cm/s	207 nM	1.39 h	32.8%	> 10 µM	> 10 µM	0.22 µM	> 10 µM	> 10 µM	> 10 µM	1670 ng·h/mL	41.8 mL/min/kg	7.04 h	3.86 h	53.1%	190 ng/mL	530 ng·h/mL	180 ng·h/mL	CL/F [21]: 52.8 mL/min/kg; half-life [22]: 0.21 h; half-life [23]: 0.84 h; Vd [24]: 1.37 L/kg; bioavailability [25]: 12.8%
N#Cc1ccc(COc2cccc(C3CCN(Cc4nc5ccc(C(=O)O)cc5n4C[C@@H]4CCO4)CC3)n2)c(F)c1 [DANUGLIPRON]	1.87 h	3.93 ×10⁻⁶ cm/s	21.7 ×10⁻⁶ cm/s	670 nM	1.21 h	3.41%	> 10 µM	> 10 µM	1.25 µM	> 10 µM	> 10 µM	> 10 µM	1670 ng·h/mL	36.5 mL/min/kg	2.46 h	1.62 h	54.2%	110 ng/mL	520 ng·h/mL	170 ng·h/mL	CL/F [21]: 554 mL/min/kg; half-life [22]: 0.32 h; half-life [23]: 1.33 h; Vd [24]: 1.98 L/kg; bioavailability [25]: 10.2%
